Assay [1] concerns the target T1, β-glucocerebrosidase (N370S mutant) (Homo sapiens, UniProt P04062, N409S).
T1 construct: mutant Gaucher lymphoblasts with the most common N370S mutation; endogenous in cells; host or cells: Gaucher (N370S) lymphoblasts
T1 sequence (P04062 40-536 N409S): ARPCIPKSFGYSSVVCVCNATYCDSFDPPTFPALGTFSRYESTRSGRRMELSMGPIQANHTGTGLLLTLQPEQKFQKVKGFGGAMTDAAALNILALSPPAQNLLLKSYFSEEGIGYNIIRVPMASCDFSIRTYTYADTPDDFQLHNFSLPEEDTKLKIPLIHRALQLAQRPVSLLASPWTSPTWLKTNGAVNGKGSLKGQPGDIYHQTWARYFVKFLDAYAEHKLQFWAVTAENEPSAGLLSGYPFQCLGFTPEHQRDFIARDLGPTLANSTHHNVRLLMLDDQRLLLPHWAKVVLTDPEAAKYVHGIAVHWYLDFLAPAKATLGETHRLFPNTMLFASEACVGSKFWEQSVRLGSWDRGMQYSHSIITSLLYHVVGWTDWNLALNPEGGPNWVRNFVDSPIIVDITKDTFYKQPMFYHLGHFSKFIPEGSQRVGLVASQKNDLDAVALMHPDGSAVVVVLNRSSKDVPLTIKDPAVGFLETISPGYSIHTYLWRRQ
In words: β-Glucocerebrosidase activation (chaperone) assay in Gaucher N370S cells. Format: cell-based. As to conditions: 3 days, versus untreated cells.

Assay [2] concerns the target T2, ceramide glucosyltransferase (Homo sapiens, UniProt Q16739).
T2 construct: endogenous in cells; host or cells: HL60 cells
T2 sequence (Q16739 1-394): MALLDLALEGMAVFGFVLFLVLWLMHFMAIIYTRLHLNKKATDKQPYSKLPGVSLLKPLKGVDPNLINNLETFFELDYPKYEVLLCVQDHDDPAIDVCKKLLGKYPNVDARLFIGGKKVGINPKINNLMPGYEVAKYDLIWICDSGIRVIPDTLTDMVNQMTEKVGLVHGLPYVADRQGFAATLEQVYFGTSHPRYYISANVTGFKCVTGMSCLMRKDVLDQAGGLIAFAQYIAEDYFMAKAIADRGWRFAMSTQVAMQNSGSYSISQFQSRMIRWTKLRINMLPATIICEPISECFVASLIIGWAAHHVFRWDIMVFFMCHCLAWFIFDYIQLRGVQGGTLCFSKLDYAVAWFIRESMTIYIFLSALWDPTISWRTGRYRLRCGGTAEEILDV
Description: Ceramide glucosyltransferase cellular assay (GM3 reduction in HL60 cells, NP-HPLC). Type of assay: cell-based. As to conditions: for IC50: 3 days, GM3 peak area.

Assay [3] concerns the target T3, human placental β-glucocerebrosidase (Homo sapiens, UniProt P04062).
T3 construct: Human placental β-glucocerebrosidase was isolated and purified; from tissue; host or cells: human placenta
T3 sequence (P04062 40-536): T1 sequence (P04062 40-536 N409S) with S370N
In words: β-Glucocerebrosidase inhibition assay (4-methylumbelliferyl-β-glucoside, fluorogenic). Format: biochemical.

Assay [4] relates to glucosylceramide and lactosylceramide in Huh7.5 cells. In words: Cellular glucosylceramide and lactosylceramide measurement in Huh7.5 hepatoma cells (lipidomics). Format: cell-based. Particulars: human hepatoma cells (Huh7.5), 10 μM, 4 days. As for the experimental part:
Glycosphingolipids (including GlcCer and LacCer) were measured according to Wolf, C. and Quinn, P. J. Progress in lipid research (2008) 47, 15-36. Briefly, chloroform-methanol extracts of cellular lipids were subjected to HPLC to isolate the glycosphingolipid species from other cellular lipids, then subjected to two-dimentional mass-spectromertry with internal standards in order to quantify particular glycosphingolipid species.
Huh7.5 cells were grown in DMEM supplemented with 100 U/ml penicillin, […] streptomycin, 2 mM L-glutamine, 1×MEM, and 10% FBS. All incubations were at 37° C./5% CO2. The effect of iminosugar treatment on cellular lipid profiles was determined in cells after incubation for 4 days in the presence or absence of iminosugars, at which point they were harvested using trypsin/EDTA, washed 3 times in cold PBS, counted using trypan blue staining, and final cell pellets were resuspended in methanol:acetone (vol 1:1) prior to lipid profiling, A small volume of each sample was used for total protein estimation using the Bradford protein assay (Bio-Rad).
The methodology has been described in detail previously (Wolf, C., Quinn, P. J., Lipidomics: Practical aspects and applications. Progress in Lipid Research 2008, 47, 15-36: Quinn, P. J., Rainteau, D., Wolf, C., Lipidomics of the red cell in diagnosis of human disorders. Methods Mol Biol 2009, 579, 127-159). […]

In assay [5] the test system is ER alpha glucosidase. In words: Free oligosaccharide analysis (measure of ER alpha glucosidase inhibition). Type of assay: cell-based. Particulars: FIG. 13, compared with UV-4. As for the experimental part: Free glucosyl oligosaccharides were measured according to Alonzi et al. Biochem. J. (2008) 409, 571-580.

The structures appear in SMILES notation. Residue numbers refer to the chain shown, from its start. Like-named read-outs stand apart in the source and are kept apart here.

For `COCCCCCCCCCN1C[C@H](O)[C@@H](O)[C@H](O)[C@H]1CO` [UV4, N-(9-methoxynonyl)deoxynojirimycin], in assay [1] (10 μM), the “Activation fold at 10 μM” value is reported as 2.1 fold. Also, the IC50 (in general, the point on the concentration scale where inhibition reaches its midpoint) stood at 190 ± 21 nM in assay [2] and 1850 ± 40 nM in assay [3] (human placental enzyme, 0.5 mM 4-MU-β-glucoside, pH 5.2). Also, the “potency in cells relative to NB-DNJ” value in assay [2] (GM3 reduction, versus NB-DNJ (Zavesca)) is “approximately 100 times”.
For the molecule `[N-]=[N+]=Nc1ccc(NCCCCCCN2C[C@H](O)[C@@H](O)[C@H](O)[C@H]2CO)c([N+](=O)[O-])c1` [UV5, N—(N′-{4′-azido-2′-nitrophenyl)-6-aminohexyl)-deoxynojirimycin], the “Activation fold (@ 1 μM)” value in assay [1] (1 μM) is 1.7 (@ 1 μM) fold. Besides, the IC50 in assay [2] was determined as 49 ± 5 nM; in assay [3] it was 150 ± 30 nM.
Consider `Cc1c(C)c2c(c(C)c1OCCCCCN1C[C@H](O)[C@@H](O)[C@H](O)[C@H]1CO)CC[C@@](C)(CCC[C@H](C)CCC[C@H](C)CCCC(C)C)O2` [Top-DNJ, tocopheryl-pentyl deoxynojirimycin], for which the “inhibition of the cellular glucosylceramide / lactosylceramide pathway” value in assay [4] was “near-complete inhibition”. The “ER glucosidase inhibitory activity (free oligosaccharide analysis)” value in assay [5] was “virtually devoid of ER glucosidase inhibitory activity”.

For the origin of these results see patent US20160075651A1, “GLYCOLIPID INHIBITION USING IMINOSUGARS” (UNITHER VIROLOGY, LLC, priority 2013, published 2016).
